{"source": "paper PMC5384001", "about": "(Scientific Reports, 2017)", "molecular_target": "T1, GluD2-Lc-(HS2)GluN1 (Rattus norvegicus, UniProt Q63226, A654T/A766F/D767R/N763E/R768S/T764L/V761T/V765F)", "T1 construct": "the function of full-length receptors as well, we introduced them into the GluD2 lurcher mutant (GluD2-Lc); expressed in transfected cells; host or cells: Xenopus laevis oocytes injected with cRNA", "T1 sequence (Q63226 24-1007 A654T/V761T/N763E/T764L/V765F/A766F/D767R/R768S)": "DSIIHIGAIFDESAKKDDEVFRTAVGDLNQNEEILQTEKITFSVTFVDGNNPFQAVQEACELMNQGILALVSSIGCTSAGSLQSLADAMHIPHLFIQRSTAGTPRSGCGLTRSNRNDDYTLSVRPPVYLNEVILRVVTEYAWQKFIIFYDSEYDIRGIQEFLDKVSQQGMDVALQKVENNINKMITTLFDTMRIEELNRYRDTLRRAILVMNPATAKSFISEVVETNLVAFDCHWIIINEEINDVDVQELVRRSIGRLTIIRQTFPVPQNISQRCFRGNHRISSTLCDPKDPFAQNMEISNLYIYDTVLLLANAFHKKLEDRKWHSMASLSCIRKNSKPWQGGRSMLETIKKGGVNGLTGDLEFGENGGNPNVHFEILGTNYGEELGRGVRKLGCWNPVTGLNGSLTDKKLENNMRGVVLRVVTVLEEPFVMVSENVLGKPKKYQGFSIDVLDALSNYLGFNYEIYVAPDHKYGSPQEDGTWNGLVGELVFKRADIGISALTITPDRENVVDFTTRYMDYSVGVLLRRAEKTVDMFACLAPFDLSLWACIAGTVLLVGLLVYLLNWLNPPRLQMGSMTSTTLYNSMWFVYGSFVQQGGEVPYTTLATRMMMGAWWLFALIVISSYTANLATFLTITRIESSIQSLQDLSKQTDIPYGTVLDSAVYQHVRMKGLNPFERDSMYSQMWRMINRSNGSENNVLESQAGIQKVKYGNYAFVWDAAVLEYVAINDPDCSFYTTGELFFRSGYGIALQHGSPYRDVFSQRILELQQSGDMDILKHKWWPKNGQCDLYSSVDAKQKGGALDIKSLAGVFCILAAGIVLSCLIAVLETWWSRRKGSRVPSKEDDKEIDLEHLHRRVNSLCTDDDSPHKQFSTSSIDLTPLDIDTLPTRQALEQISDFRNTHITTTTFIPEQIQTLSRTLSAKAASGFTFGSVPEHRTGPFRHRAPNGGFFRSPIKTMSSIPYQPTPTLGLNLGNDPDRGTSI", "assay": "Two-electrode voltage clamp in Xenopus oocytes, inhibition of spontaneous currents", "assay_type": "cell-based", "from_the_text": "All cDNAs for expression in Xenopus oocytes were cloned into the vector pSGEM[30]. Point mutants of GluD2-Lc were constructed by overlap extension PCR with mutagenic oligonucleotide primers. The GluD2-Lc-(H)GluN1 chimera was constructed by transferring the S1- and S2-encoding sequences from GluD2-LBD-(H)GluN1 to GluD2-Lc via overlap extension PCR using tail primers. The S1 and S2 sequences were transferred separately, yielding GluD2-Lc-(HS1)GluN1 and GluD2-Lc-(HS2)GluN1 constructs. GluD2-Lc-(H)GluN1 was then produced from these by another overlap extension PCR. Complementary RNA (cRNA) for injection into oocytes was synthesised from 1 μg of linearised template DNA with the mMESSAGE mMACHINE in vitro transcription kit (Ambion, Austin, TX, USA).\nOocytes were obtained by surgically removing parts of the ovaries from Xenopus laevis (Nasco, Fort Atkinson, WI, USA) anaesthetised with 1.5 g/L 3-aminobenzoic acid ethylester (Sigma, Taufkirchen, Germany). The ovary clippings were digested with 784 U/mL (4 mg/mL) collagenase type I (Worthington, Lakewood, NJ, USA) in Ca^2+-free Barth’s solution (88 mM NaCl, 1.1 mM KCl, 2.4 mM NaHCO3, 0.8 mM MgSO4, 15 mM HEPES-NaOH, pH 7.6) with gentle agitation for 1.5–2 h at 20 °C to remove the follicular cell layer. After stopping the collagenase digestion by washing with Barth’s solution (88 mM NaCl, 1.1 mM KCl, 2.4 mM NaHCO3, 0.3 mM Ca(NO3)2, 0.4 mM CaCl2, 0.8 mM MgSO4, 15 mM HEPES-NaOH, pH 7.6), defolliculated oocytes of stages V and VI were selected and maintained at 16 °C in Barth’s solution supplemented with 100 μg/mL gentamicin, 40 μg/mL streptomycin, and 63 μg/mL penicillin. Oocytes were injected with 11 ng cRNA (10 ng of each cRNA for co-expression of GluN1 and GluN2A) using a nanoliter injector (WPI, Sarasota, FL, USA). Four days after cRNA injection, current responses were recorded under voltage clamp at –70 mV with a Turbo Tec-10CD amplifier (npi electronic, Tamm, Germany) controlled by Patchmaster software (HEKA, Lambrecht, Germany). Currents were filtered with a 20 Hz low-pass filter and then digitised with a sampling rate of 50 Hz. Recording electrodes were pulled from borosilicate glass (Hilgenberg, Malsfeld, Germany) with an L/M-3P-A vertical pipette puller (List-Medical), filled with 3 M KCl, and had resistances of 0.5–5 MΩ (voltage electrode) or 0.5–1.5 MΩ (current electrode). Recordings were performed in a 50 μL chamber under constant superfusion with extracellular solution at a flow rate of 3–5 mL/min. […] Finally, Ba-NFR and then NMDGR were applied again to check for reversibility."}
{"smiles": "N[C@H](CO)C(=O)O", "note": "[D-serine]", "values": [{"measurement": "D-serine efficacy Mean ± SEM", "setting": "fraction of spontaneous current inhibited by D-serine", "value": "0.9 ± 0.4", "unit": "%"}, {"measurement": "sensitivity to D-serine", "setting": "inhibition of spontaneous currents", "value": "insensitive"}]}
